In assay [1] the test system is adjuvant arthritis pain (squeaking response). Put plainly: Adjuvant arthritis (pain) test. Format: in vivo, Lewis strain rats. The note with it: squeaking response over 5 hours after oral administration.
A further assay relates to adjuvant arthritis. The experiment in a line: Adjuvant arthritis (therapy) test. Type of assay: in vivo, Lewis strain rats. To be noted: foot volume on the day after final administration. The protocol:
Experiment 2 [Adjuvant arthritis (therapy) test]
An adjuvant arthritis (therapy) test was carried out according to the method of Winder et al [Arthritis Rheum., vol. 12, page 472 (1969)].
Seven Lewis strain rats (for each group) were administered subcutaneously 0.7% Mycobacterium tuberculosis suspended in liquid paraffin into the left hind foot pad to induce adjuvant arthritis. 15 to 18 Days after the administration of adjuvant, rats with fully developed arthritis were administered orally with test drugs [the compound (a), (b), (i), (j), (k) and (m) of the present invention]and the control drug (indomethacin), each suspended in 5% aqueous gum arabic solution in an amount of 1 ml per 100 g of body weight once a day for 4 days.
On the day after the final administration, the volume of the foot was determined, and the edema inhibition rate (%) was calculated for the therapeutical effect. Doses of the test drugs were each 0.5 mg/kg, and dose of the control drug (indomethacin) was 1.0 mg/kg.

The next assay relates to carrageenin foot edema. Put plainly: Carrageenin foot edema test. Type of assay: in vivo, Wister strain rats. To be noted: for inhibition in vivo at 1 mg/kg / inhibition in vivo at 0.5 mg/kg: Rattus norvegicus, po, 3 h, read-out: Edema Inhibition rate; for inhibition in vivo at 0.5 mg/kg: *: dose of 0.5 mg/kg, orally. The protocol:
Experiment 1 [Carrageenin foot edema test]
A carrageenin foot edema test was carried out according to the method of Winter et al [Proc. Soc. Exp. Biol. Med., vol. 111, page 544 (1962)].
Six Wister strain rats (for each group) were administered orally with the test drugs [the compounds (a) to (n) of the present invention] and the control drug (indomethacin), each suspended in 5% aqueous gum arabic solution in an amount of 1 ml per 100 g of body weight. An hour later, 0.1 ml of 1% carrageenin was administered subcutaneously into the left hind foot pad. Three hours after the administration of carrageenin, the volume of the foot was determined, and the edema inhibition rate (%) was calculated for the anti-inflammatory effect.
Doses of the test drugs (a) to (l) and the control drug (indomethacin) were each 1 mg/kg, and doses of test drugs (m) and (n) were each 0.5 mg/kg.
(In the carrageenan paw model, swelling and tenderness develop within hours.)

Where [2] appears, read: test drugs 0.5 mg/kg orally once a day for 4 days.
Setting [3] is: 1 mg/kg orally, 1 hour before 1% carrageenin, foot volume 3 hours after carrageenin.
Setting [4] is: 1 hour before 1% carrageenin, foot volume 3 hours after carrageenin.

Structures can show the parent of a compound that is named as a salt. Where two headings read alike, the source gives them in different places.

For `CS(=O)(=O)Nc1ccc([N+](=O)[O-])cc1Oc1ccccc1` [Control drug, N-(4-nitro-2-phenoxyphenyl)methanesulfonamide, reference compound], the Inhibition rate in assay [1] (control drug, dose not separately stated) came out at 19.4%. Take `CCCCNCC(=O)Nc1cc(NS(C)(=O)=O)c(Oc2ccccc2)cc1[N+](=O)[O-]` [Example 1, N-[5-(n-butylaminoacetylamino)4-nitro-2-phenoxyphenyl]methanesulfonamide]: the “Edema Inhibition rate” value in the assay on adjuvant arthritis (setting [2]) is 61.1%. Besides, the Inhibition rate in assay [1] (test drugs each 1.0 mg/kg) is recorded as 50.6%. In addition, the inhibition in vivo at 1 mg/kg in the assay on carrageenin foot edema (setting [3]) came out at 34.6%. For `CCCNCC(=O)Nc1cc(NS(C)(=O)=O)c(Oc2ccccc2)cc1[N+](=O)[O-]` [Example 2, N-[4-nitro-5-(n-propylaminoacetylamino)-2-phenoxyphenyl]methanesulfonamide], the “Edema Inhibition rate” value in the assay on adjuvant arthritis (test drugs 0.5 mg/kg orally once a day for 4 days, listed as b) is 54.4%. The Inhibition rate in assay [1] (test drugs each 1.0 mg/kg, listed as b) is 47.5%. In the assay with carrageenin foot edema (setting [3]), the inhibition in vivo at 1 mg/kg is 30.2%.

For the compound `CS(=O)(=O)Nc1cc(NC(=O)CNC2CC2)c([N+](=O)[O-])cc1Oc1ccccc1` [Example 5], the inhibition in vivo at 1 mg/kg with carrageenin foot edema (setting [3]) was determined as 31.4%. Consider `CS(=O)(=O)Nc1cc(NC(=O)CNC2CCCC2)c([N+](=O)[O-])cc1Oc1ccccc1` [Example 7], for which the inhibition in vivo at 1 mg/kg in the assay with carrageenin foot edema (setting [3]) came out at 27.8%.

Turning to `CS(=O)(=O)Nc1cc(NC(=O)CNC2CCCCC2)c([N+](=O)[O-])cc1Oc1ccccc1` [Example 8], the inhibition in vivo at 1 mg/kg in the assay on carrageenin foot edema (setting [3]) amounted to 32.7%. Regarding `C=CCNCC(=O)Nc1cc(NS(C)(=O)=O)c(Oc2ccccc2)cc1[N+](=O)[O-]` [Example 9], in the assay with carrageenin foot edema (setting [3]), the inhibition in vivo at 1 mg/kg is 31.9%. Still for that read-out and setting: then `CS(=O)(=O)Nc1cc(NC(=O)CNCc2ccccc2)c([N+](=O)[O-])cc1Oc1ccccc1` [Example 10], with 35.8%. As for `CNCC(=O)Nc1cc(NS(C)(=O)=O)c(Oc2ccccc2)cc1[N+](=O)[O-]` [Example 20, N-(5-methylaminoacetylamino-4-nitro-2-phenoxyphenyl)methanesulfonamide], the “Edema Inhibition rate” value in the assay on adjuvant arthritis (setting [2]) is given as 53.0%. Further, the inhibition in vivo at 1 mg/kg in the assay on carrageenin foot edema (setting [3]) was 41.8%. The corresponding values for `CCNCC(=O)Nc1cc(NS(C)(=O)=O)c(Oc2ccccc2)cc1[N+](=O)[O-]` [Example 21, N-(5-ethylaminoacetylamino-4-nitro-2-phenoxyphenyl)methanesulfonamide] are 54.2% and 39.9%. For `CS(=O)(=O)Nc1cc(NC(=O)CN)c([N+](=O)[O-])cc1Oc1ccccc1` [Example 22, N-(5-aminoacetylamino-4-nitro-2-phenoxyphenyl)methanesulfonamide], in the assay on adjuvant arthritis (setting [2]), the “Edema Inhibition rate” value is 52.9%. For the same compound, the Inhibition rate in assay [1] (test drugs each 1.0 mg/kg) amounted to 41.9%. The inhibition in vivo at 1 mg/kg with carrageenin foot edema (setting [3]) was 46.6%.

Regarding `CCCCNCC(=O)Nc1cc(NS(C)(=O)=O)c(Oc2ccccc2)cc1[N+](=O)[O-].Cl` [Example 23, N-[5-(n-butylaminoacetylamino)-4-nitro-2-phenoxyphenyl]methanesulfonamide hydrochloride], the “Edema Inhibition rate” value with carrageenin foot edema (setting [3]) is given as 25.1%. With `CCCNCC(=O)Nc1cc(NS(C)(=O)=O)c(Oc2ccccc2)cc1[N+](=O)[O-]` [Example 24, N-[4-nitro-5-(n-propylaminoacetylamino)-2-phenoxyphenyl]methanesulfonamidehydrochloride], the “Edema Inhibition rate” value in the assay with adjuvant arthritis (test drugs 0.5 mg/kg orally once a day for 4 days, listed as m) came to 53.0%. For the same compound, in assay [1] (test drugs each 1.0 mg/kg, listed as m), the Inhibition rate came out at 52.1%. Also, the inhibition in vivo at 0.5 mg/kg with carrageenin foot edema (setting [4]) amounted to 22.4%. `CS(=O)(=O)Nc1cc(NC(=O)CN)c([N+](=O)[O-])cc1Oc1ccccc1` [Example 25, N-(5-aminoacetylamino-4-nitro-2-phenoxyphenyl)methanesulfonamide hydrochloride]: in the assay with carrageenin foot edema (setting [4]), the inhibition in vivo at 0.5 mg/kg was 27.9%. Turning to `COc1ccc2c(c1)c(CC(=O)O)c(C)n2C(=O)c1ccc(Cl)cc1` [indomethacin, reference compound], in the assay with adjuvant arthritis (control drug 1.0 mg/kg orally once a day for 4 days), the “Edema Inhibition rate” value is recorded as 39.5%. The inhibition in vivo at 1 mg/kg in the assay with carrageenin foot edema turned out to be 21.4%. For the compound “N-[2-Cyclohexyloxy-5-(n-propylaminoacetylamino)phenyl]methanesulfonamide [Example 18]”, the “Edema Inhibition rate” value with carrageenin foot edema (setting [3]) is listed as 36.0%.
